# Laboratory results reported in publication PMC12221116, “Novel Quinazolinones Active against Multidrug‐Resistant Mycobacterium Tuberculosis: Synthesis, Antimicrobial Evaluation, and in Silico Exploration of Penicillin‐Binding Protein 1A as a Potential Target” (Chemmedchem, 2025).
# Read-outs that look alike come from different tables or passages of the source.
# What was measured:
# [1] = system: HepG2; settings: read-out: IC50 for HepG2 [24 h]; 24 h incubation, cytotoxicity
# [2] = system: M. aurum; experiment: Microdilution broth resazurin assay, MIC; assay type: cell-based, Mycolicibacterium aurum
# [3] = system: MRC-5; settings: read-out: IC50 for MRC-5 [24 h]; 24 h incubation, cytotoxicity
# [4] = system: M. avium; experiment: Microdilution broth resazurin assay, MIC; assay type: cell-based, Mycobacterium avium
# [5] = system: M. kansasii; experiment: Microplate Alamar Blue assay, MIC; assay type: cell-based, Mycobacterium kansasii; settings: for MIC: Mycobacterium kansasii, read-out: Antimycobacterial Activity MIC M. kans.
# [6] = system: Mtb H37Rv; experiment: Microplate Alamar Blue assay, MIC; assay type: cell-based, Mycobacterium tuberculosis; settings: for MIC: Mycobacterium tuberculosis, H37RV
# [7] = system: Mtb H37Ra; experiment: Microdilution broth resazurin assay, MIC; assay type: cell-based, Mycobacterium tuberculosis
# [8] = system: M. smegmatis; experiment: Microdilution broth resazurin assay, MIC; assay type: cell-based, Mycolicibacterium smegmatis
# [9] = system: MRC-5; experiment: cells; settings: Homo sapiens
# [10] = system: HepG2; experiment: cells; settings: Homo sapiens
# [11] = Table S5 matching pairs series A and B
# [12] = Mycolicibacterium aurum, read-out: Antimycobacterial Activity MIC M. aurum
# [13] = Mycobacterium avium, read-out: Antimycobacterial Activity MIC M. avium
# [14] = Microplate Alamar Blue assay, read-out: Antimycobacterial Activity MIC Mtb H37Rv
# [15] = Mycobacterium tuberculosis, H37RA; read-out: Antimycobacterial Activity MIC Mtb H37Ra
# [16] = Mycolicibacterium smegmatis, read-out: Antimycobacterial Activity MIC M. smeg.
# [17] = Mycolicibacterium aurum; read-out: Antimycobacterial Activity MIC M. aurum
# [18] = Mycobacterium avium; read-out: Antimycobacterial Activity MIC M. avium
# [19] = Mycolicibacterium smegmatis; read-out: Antimycobacterial Activity MIC M. smeg.
# [20] = read-out: Antimycobacterial Activity MIC Mtb H37Rv, Table S5 matching pairs series A and B
# [21] = Mycobacterium tuberculosis, H37RA, read-out: Antimycobacterial Activity MIC Mtb H37Ra
smiles,measurement,setting,value
Cc1nc2ccccc2c(=O)n1Cc1cccc(Cl)c1 [Compound 6],IC50,[1],507 ± 48 µM
same,Antimycobacterial Activity MIC M. aurum,[2],62.5 µg/mL
same,Antimycobacterial Activity MIC M. aurum,[2]; [11],62.5 µg/mL
same,IC50,[3],551 ± 19 µM
same,Antimycobacterial Activity MIC M. avium,[4],31.25 µg/mL
same,Antimycobacterial Activity MIC M. avium,[4]; [11],31.25 µg/mL
same,Antimycobacterial Activity MIC M. kans.,[5],25 µg/mL
same,Antimycobacterial Activity MIC M. kans.,[5]; [11],25 µg/mL
same,Antimycobacterial Activity MIC Mtb H37Rv,[6]; Microplate Alamar Blue assay,50 µg/mL
same,Antimycobacterial Activity MIC Mtb H37Rv,[6]; [11],50 µg/mL
same,Antimycobacterial Activity MIC Mtb H37Ra,[7],31.25 µg/mL
same,Antimycobacterial Activity MIC Mtb H37Ra,[7]; [11],31.25 µg/mL
same,Antimycobacterial Activity MIC M. smeg.,[8],62.5 µg/mL
same,Antimycobacterial Activity MIC M. smeg.,[8]; [11],62.5 µg/mL
COc1ccc(/C=N/n2c(C)nc3cc(Cl)ccc3c2=O)cc1 [Compound 40],MIC,[2]; [12],≥ 15.6 µg/mL
same,MIC,[4]; [13],≥ 15.6 µg/mL
same,MIC,[5],> 50 µg/mL
same,MIC,[6]; [14],> 50 µg/mL
same,MIC,[7]; [15],≥ 15.6 µg/mL
same,MIC,[8]; [16],≥ 15.6 µg/mL
Cc1nc2cc(Cl)ccc2c(=O)n1/N=C/c1cccc(O)c1 [Compound 36],MIC,[2]; [12],≥ 62.5 µg/mL
same,MIC,[4]; [13],≥ 62.5 µg/mL
same,MIC,[5],> 100 µg/mL
same,MIC,[6]; [14],> 100 µg/mL
same,MIC,[7]; [15],≥ 62.5 µg/mL
same,MIC,[8]; [16],≥ 62.5 µg/mL
"NNC(=O)c1ccncc1 [INH, isoniazid, reference compound]",MIC,"[2]; Mycolicibacterium aurum, DSM43999; internal quality controls (standards); read-out: MINIMUM INHIBITORY CONCENTRATION Mycolicibacterium aurum DSM 43999",1.95 to 3.91 µg/mL
same,MIC,[2]; [17],3.91 µg/mL
same,MIC,"[4]; Mycobacterium avium, DSM44156; internal quality controls (standards); read-out: MINIMUM INHIBITORY CONCENTRATION Mycobacterium avium DSM 44156",500 to 1000 µg/mL
same,MIC,[4]; [18],1000 µg/mL
same,MIC,[5],25 µg/mL
same,MIC,[6]; [14],0.2 µg/mL
same,MIC,"[7]; Mycobacterium tuberculosis, H37RA; internal quality controls (standards); read-out: MINIMUM INHIBITORY CONCENTRATION Mycobacterium tuberculosis H37Ra",0.125 to 0.25 µg/mL
same,MIC,[7]; [15],0.25 µg/mL
same,MIC,"[8]; Mycolicibacterium smegmatis, DSM43465; internal quality controls (standards); read-out: MINIMUM INHIBITORY CONCENTRATION Mycolicibacterium smegmatis DSM 43465",15.6 to 31.2 µg/mL
same,MIC,[8]; [19],15.6 µg/mL
Cc1nc2cc(Cl)ccc2c(=O)n1/N=C/c1cccnc1 [Compound 30],MIC,[2]; [12],≥ 31.2 µg/mL
same,MIC,[4]; [13],≥ 31.2 µg/mL
same,MIC,[5],> 25 µg/mL
same,MIC,[6]; [14],> 25 µg/mL
same,MIC,[7]; [15],≥ 31.2 µg/mL
same,MIC,[8]; [16],≥ 31.2 µg/mL
Cc1nc2cc(Cl)ccc2c(=O)n1/N=C/c1ccc(O)cc1 [Compound 37],MIC,[2]; [12],≥ 62.5 µg/mL
same,MIC,[4]; [13],≥ 62.5 µg/mL
same,MIC,[5],> 50 µg/mL
same,MIC,[6]; [14],> 50 µg/mL
same,MIC,[7]; [15],≥ 62.5 µg/mL
same,MIC,[8]; [16],≥ 62.5 µg/mL
Cc1nc2cc(Cl)ccc2c(=O)n1/N=C/c1cccc([N+](=O)[O-])c1 [Compound 27],MIC,[2]; [12],≥ 62.5 µg/mL
same,MIC,[4]; [13],≥ 62.5 µg/mL
same,MIC,[5],> 50 µg/mL
same,MIC,[6]; [14],> 50 µg/mL
same,MIC,[7]; [15],≥ 62.5 µg/mL
same,MIC,[8]; [16],≥ 62.5 µg/mL
Cc1nc2cc(Cl)ccc2c(=O)n1/N=C/c1ccccc1F [Compound 42],MIC,[2]; [12],≥ 31.2 µg/mL
same,MIC,[4]; [13],≥ 31.2 µg/mL
same,MIC,[5],> 25 µg/mL
same,MIC,[6]; [14],> 25 µg/mL
same,MIC,[7]; [15],≥ 31.2 µg/mL
same,MIC,[8]; [16],≥ 31.2 µg/mL
Cc1nc2cc(Cl)ccc2c(=O)n1Cc1cccc(Cl)c1 [Compound 21],IC50,"[9]; MRC5, 24 h, read-out: IC50 for MRC-5 [24 h]",> 50 µM
same,IC50,"[9]; MRC5, 72 h, read-out: IC50 for MRC-5 [72 h]",> 50 µM
same,MIC,[2]; [17],≥ 250 µg/mL
same,Antimycobacterial Activity MIC M. aurum,[2]; [11],≥ 250 µg/mL
same,MIC,[4]; [18],≥ 250 µg/mL
same,Antimycobacterial Activity MIC M. avium,[4]; [11],≥ 250 µg/mL
same,MIC,[5],> 100 µg/mL
same,MIC,[6]; [14],25 µg/mL
same,MIC,[6]; [20],25 µg/mL
same,Antimycobacterial Activity MIC Mtb H37Ra,[7],15.625 µg/mL
same,MIC,[7]; [21],15.6 µg/mL
same,MIC,[8]; [19],≥ 250 µg/mL
same,Antimycobacterial Activity MIC M. smeg.,[8]; [11],≥ 250 µg/mL
same,IC50,"[10]; HepG2, 24 h, read-out: IC50 for HepG2 [24 h]",> 50 µM
same,IC50,"[10]; HepG2, 72 h, read-out: IC50 for HepG2 [72 h]",> 50 µM
COc1ccc(Cn2c(C)nc3cc(Cl)ccc3c2=O)c(OC)c1 [Compound 15],Antimycobacterial Activity MIC M. aurum,[2],≥125 µg/mL
same,MIC,[2]; [12],≥ 125 µg/mL
same,Antimycobacterial Activity MIC M. avium,[4],≥125 µg/mL
same,MIC,[4]; [13],≥ 125 µg/mL
same,MIC,[5],> 100 µg/mL
same,MIC,[6]; [14],> 100 µg/mL
same,MIC,[6]; [20],> 100 µg/mL
same,Antimycobacterial Activity MIC Mtb H37Ra,[7],≥125 µg/mL
same,MIC,[7]; [21],≥ 125 µg/mL
same,Antimycobacterial Activity MIC M. smeg.,[8],≥125 µg/mL
same,MIC,[8]; [16],≥ 125 µg/mL
Cc1nc2cc(Cl)ccc2c(=O)n1/N=C/c1ccccc1[N+](=O)[O-] [Compound 26],MIC,[2]; [12],≥ 62.5 µg/mL
same,MIC,[4]; [13],≥ 62.5 µg/mL
same,MIC,[5],> 25 µg/mL
same,MIC,[6]; [14],> 25 µg/mL
same,MIC,[7]; [15],≥ 62.5 µg/mL
same,MIC,[8]; [16],≥ 62.5 µg/mL
Cc1ccccc1/C=N/n1c(C)nc2cc(Cl)ccc2c1=O [Compound 46],MIC,[2]; [12],≥ 62.5 µg/mL
same,MIC,[4]; [13],≥ 62.5 µg/mL
same,MIC,[5],> 25 µg/mL
same,MIC,[6]; [14],> 25 µg/mL
same,MIC,[7]; [15],≥ 62.5 µg/mL
same,MIC,[8]; [16],≥ 62.5 µg/mL
